One data set deals with human fibroblasts. Nature of the data set: Anti-radical effect on human fibroblasts (UVA). Conditions: 200 μg/ml, in the absence of UVA.
The next data set deals with pancreatic elastase (Sus scrofa, UniProt P00772). Put plainly: Anti-elastasic activity, test in semi-solid medium (elastin in gelose). The format is biochemical. The settings on record: 10 mM. Here is the method: Principle: Inhibition of the degradation of elastin contained in gelose by elastase
The anti-elastase activity of acid sophorolipids was evaluated using a semi-quantitative technique. The enzymatic solution, associated or otherwise with the test compound or with the reference molecule, was deposited in hollows in gelose containing the substrate, elastin.
The enzyme diffused into the gelose and digested the elastin.
This phenomenon was shown as a lightening of the gelose in the digestion zone, which zone was measured.

A further data set has as its system elastase. Put plainly: Anti-elastasic activity on human skin section. An excerpt: The elastin substrate was that which exists in human skin.
That result was expected and acted to validate the test.

A short description of data set [1]: Anti-radical activity (EPR method). The settings on record: hydroxyl radical EPR signal. Here is the method: The anti-radical effect of crude and acid sophorolipids was evaluated with respect to a free radical derived from oxygen and which is particularly important in pathology, namely the hydroxyl radical. Electron paramagnetic resonance spectrometry (EPR) was used. A molecule which traps free radicals reduces the signal. EPR measurements were carried out using a Brucker ECS106 spectrometer at ambient temperature. The hydroxyl radical (OH^.) was produced by photolysis (UVB) of hydrogen peroxide in aqueous solution. Mannitol was used as a reference molecule (positive control).

pancreatic elastase, sequence (P00772 27-266): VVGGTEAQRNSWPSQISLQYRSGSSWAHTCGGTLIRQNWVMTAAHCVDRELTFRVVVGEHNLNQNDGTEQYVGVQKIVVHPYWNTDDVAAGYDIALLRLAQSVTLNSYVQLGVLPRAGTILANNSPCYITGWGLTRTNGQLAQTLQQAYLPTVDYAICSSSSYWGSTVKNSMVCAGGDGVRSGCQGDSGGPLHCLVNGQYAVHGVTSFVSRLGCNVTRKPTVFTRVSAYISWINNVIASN

On to `CC(=O)Oc1c(C)c(C)c2c(c1C)CCC(C)(CCC[C@H](C)CCC[C@H](C)CCCC(C)C)O2` (some centres unmarked) [Acetate of vitamin E, acetate of vitamin E], for which the toxicity for cells result in the data set on human fibroblasts is recorded as “not toxic”.

Consider `[Cl][Hg][Cl]` [HgCl2, mercury chloride], for which the enzymatic inhibition entry at pancreatic elastase is reported as “total”. Moreover, the “Diameter of digestion zone” value at pancreatic elastase (6 hours incubation) and on pancreatic elastase (21 hours incubation) was 0 cm throughout. Besides, the “Degradation of elastin fibres” value in the data set on elastase (0.125 % (w/v)) is on record as “None”. In the data set with elastase (reference molecule), the “inhibition of elastase activity” value is on record as “dose-dependent manner”.

In data set [1] (10 mM), `OC[C@@H](O)[C@@H](O)[C@H](O)[C@H](O)CO` [Mannitol] returned a trapping activity of 98%. In data set [1] (0.182% (w/v)), the “% anti-radical protection” value stood at 98%.

(Values after patent US5756471A, “Use of a sophorolipid to provide free radical formation inhibiting activity or elastase inhibiting activity” (Institut Francais du Petrole, priority 1994, dated 1998).)
